Patent US20060171935A1, “Protecting cell therapy for neurological disorders including Parkinson's disease” (priority 2005, published 2006)
Residue numbers refer to the chain shown, from its start. Numbers in names are those of the source. Where two headings read alike, the source gives them in different places. d = 2'-deoxy (DNA); r = 2'-OH (RNA)

Experiments:
DJ-1 deficient ES cells = type: cell-based
Description: DJ-1 has been hypothesized to function in the cellular response to oxidative stress. To investigate the role of DJ-1 in the oxidative stress response in vivo, DJ-1-deficient homozygous mutant (‘knockout’) cells and DJ-1 heterozygote (‘control’) ES cell clones were analyzed for cell viability in the context of increasing concentrations of H2O2. Heterozygous cells were used as controls because the ‘knockout’ subclones were derived from these. Cell viability was initially determined by MTT assay in triplicate (Fezoui et al. 2000). […] The increase in AV-positive cells implicated an apoptotic mechanism of cell death (FIG. 14F).
(§1) In Vivo Assays. ES cells plated in 96-well format (2.3×10^4 cells/well) were treated for 15 hours with H2O2 in ES media deficient in β-mercaptoethanol (Abeliovich et al. 2000). Cell viability (as a percent of untreated control) was determined by MTT assay in triplicate (Fezoui et al. 2000). Annexin V/Propidium Iodide (Molecular probes) staining was performed per the manufacturer's instructions. For dihydrorhodamine-123 staining (DHR, Molecular probes) (Walrand et al. 2003), cells were preincubated for 30 min with DHR (5 μM), washed with PBS, then treated with H2O2 in ES media deficient in β-mercaptoethanol for 15 min at 37° C. The FACS analysis was performed using a FACSTAR sorter (Becton Dickinson). Dopamine uptake assay was performed essentially as described (Farrer et al. 1998). Reported values represent specific uptake from which non-specific uptake, determined in the presence of mazindol, was subtracted, and normalized for protein content (BCA kit, Pierce).

[1] = test system: primary culture midbrain dopamine neurons; test: Parkin siRNA in primary midbrain dopamine neuron cultures; type: cell-based, mice
Description: (§2) Cerebellar granule neurons from P6 mice were purified and transfected essentially as described (Scheiffele et al., Neuroligin expressed in nonneuronal cells triggers presynaptic development in contacting axons. Cell, 101:657-69, 2000). Dissociated cortical neurons from E16.5 mice were prepared and cultured as described (Scheiffele et al., Neuroligin expressed in nonneuronal cells triggers presynaptic development in contacting axons. Cell, 101:657-69, 2000). Primary midbrain cultures were prepared from E13.5 mouse embryos, as described (Hynes et al., Induction of midbrain dopaminergic neurons by Sonic hedgehog. Neuron, 15:35-44, 1995). Cells were treated for 24 h with or without kainate (250 or 500 μM as indicated; Sigma) or MPP^+ (1 or 10 μM as indicated; Sigma), stained for 20 min with 0.5 μg/ml Hoechst 33342 (Sigma), and visualized by fluorescence microscopy. For granule cell assays, at least 100 cells in two 20× fields were scored in duplicate for GFP and/or Hoechst signal. For immunohistochemistry, cell cultures were washed twice with PBS, and fixed for 20 min with 4% (w/v) paraformaldehyde. Cells were blocked for 1 h, at room temperature, with 3% (v/v) goat serum in PBS, and then incubated overnight, at 4° C., with specific antibodies, as indicated. Cells were washed, incubated for 1 h at room temperature with appropriately-labeled secondary antibodies, and visualized by fluorescence microscopy. For midbrain culture experiments, DAT-specific immunoreactivity (pixels), and cytoplasmic parkin and cyclin E immunoreactivity (mean pixel density), were quantified in triplicate, across nine fields of view, at 20× using Image software (Scion).
SiRNAs were synthesized by Dharmacon Research, Inc., and duplexes were formed as per the manufacturer's instructions (parkin siRNA sequence: 5′ […] […]dTdT 3′; DAT siRNA sequence: 5′ […]dTdT 3′; SERT siRNA sequence: 5′[…]dTdT 3′). Cortical cultures were transfected using Lipofectamine 2000 reagent (Life Technologies); primary midbrain cultures were transfected using Transmessenger (Qiagen), as described (Krichevsky and Kosik, RNAi functions in cultured mammalian neurons. Proc. Natl. Acad. Sci. USA, 99:11926-929, 2002).
Embryonic day 13.5 (E13.5) primary culture midbrain dopamine neurons, identified by immunohistochemical staining for the dopamine transporter (DAT) (Nirenberg et al., The dopamine transporter is localized to dendritic and axonal plasma membranes of nigrostriatal dopaminergic neurons. J. Neurosci., 16:436-47, 1996), were transfected with parkin siRNA (FIG. 7, panels F-J and P-T) or control siRNA (FIG. 7, panels A-E and K-O), and subsequently exposed to kainate, as above.

[2] = test system: primary cortical cultures; test: Parkin siRNA in kainate-treated primary cortical cultures, Western blot; type: cell-based, mice; settings: 25 nM siRNA
Description: as §2
SiRNAs were synthesized by Dharmacon Research, Inc., and duplexes were formed as per the manufacturer's instructions (parkin siRNA sequence: 5′ […] […]dTdT 3′; DAT siRNA sequence: 5′ […]dTdT 3′; SERT siRNA sequence: 5′[…]dTdT 3′). […]

citrate synthase (CS) = target: T1, citrate synthase (CS) (Sus scrofa, UniProt P00889); test: Suppression of heat-induced aggregation of citrate synthase (chaperone assay); type: biochemical; settings: 0.8 μM CS, 43° C.
T1 construct: purchased Sigma
T1 sequence (P00889 28-464): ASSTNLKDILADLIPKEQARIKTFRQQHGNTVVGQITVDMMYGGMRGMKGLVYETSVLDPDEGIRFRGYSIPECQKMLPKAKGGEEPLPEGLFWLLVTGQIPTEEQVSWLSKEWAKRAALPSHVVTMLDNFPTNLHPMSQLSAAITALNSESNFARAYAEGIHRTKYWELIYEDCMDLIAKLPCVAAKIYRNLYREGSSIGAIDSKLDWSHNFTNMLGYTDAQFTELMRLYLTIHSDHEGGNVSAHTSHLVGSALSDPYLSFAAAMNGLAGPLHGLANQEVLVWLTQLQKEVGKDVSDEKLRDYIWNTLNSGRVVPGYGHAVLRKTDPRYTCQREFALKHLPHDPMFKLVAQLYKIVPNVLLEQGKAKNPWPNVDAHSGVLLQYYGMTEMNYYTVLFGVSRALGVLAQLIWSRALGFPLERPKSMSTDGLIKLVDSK
Description: To test the redox regulation of DJ-1, the inventors assayed chaperone activity in the CS aggregation assay in the presence or absence of the reducing agent DTT. […] (FIG. 22D). […] To further test whether redox regulation might govern DJ-1 chaperone activity, reactivation studies using reduced DJ-1 were performed. DTT-reduced DJ-1 was incubated with H2O2 (10 mM in aggregation buffer for 10 min at 4° C. followed by dialysis against aggregation buffer for 2 h), and subsequently chaperone activity was measured in the CS thermal aggregation assay. […] This was not an indirect effect of residual H2O2 on CS aggregation, as H2O2 treatment of CS increased aggregation (unpublished data).
CS aggregation was performed in 40 mM HEPES (pH 7.8), 20 mM potassium hydroxinde, 50 mM potassium chloride, and 10 mM ammonium sulfate, and monitored in a thermostat-controlled fluorescence spectrophotometer with excitation and emission wavelengths at 500 nm and slit widths at 2.5 nm. Insulin aggregation was performed as described (Giasson et al. 2000). CS, insulin, RNase A, and GST were obtained from Sigma; human Hsp27 was obtained from Stressgen.

DJ-1-deficient ES cells = test: Rescue of DJ-1-deficient ES cells from H2O2, MTT viability; type: cell-based, murine; settings: transient transfection, 10 μM H2O2 for 15 h
Description: (A) DJ-1 cysteine-to-alanine mutants C106A, C53A, and a triple mutant that harbors mutations at all three cysteines in DJ-1 (C106A/C53A/C46A), as well as L166P, were tested for in vitro chaperone activity by CS aggregation suppression assay. (B) Self-association of DJ-1 cysteine mutants. Murine neuroblastoma CAD cells were transiently cotransfected with Flag-tagged human DJ-1 vectors (either WT or mutant) along with WT YFP-tagged human DJ-1. Lysates were immunoprecipitated with anti-Flag antibodies and probed by Western blotting with an antibody specific for human DJ-1. […] Lysates represent 20% of the input for the immunoprecipitate; Flag-DJ-1 migrates at 22 kDa, and YFP-DJ-1 migrates at 50 kDa. (C) DJ-1-deficient ES cells were transiently transfected with vector alone, WT DJ-1, or DJ-1 cysteine mutants, and exposed to 10 μM H2O2 for 15 h followed by MTT assay. The viability of the cells in the absence of drug treatment was not altered by the expression of WT or mutant DJ-1). Data are shown as the mean±SEM and were analyzed by ANOVA with Fisher's post-hoc test. *p<0.05.
To confirm that altered sensitivity to oxidative stress is a consequence of the loss of DJ-1, ‘rescue’ experiments by overexpressing wild-type or mutant human DJ-1 in ‘knockout’ ES cells were performed. Plasmids encoding human wild-type DJ-1, PD-associated L166P mutant DJ-1, or vector alone, were transiently transfected into DJ-1 deficient clones, and these were subsequently assayed for sensitivity to H2O2 using the MTT viability assay.
as §1

Q: OO [H2O2] was tested. Which “sensitivity of DJ-1 deficient cells to toxin relative to heterozygous cells” value (DJ-1 deficient ES cells; 15 h exposure, MTT) did it give?
A: The value was “significantly greater toxicity”.

Q: How did the “sensitivity of DJ-1 deficient cells to toxin relative to heterozygous cells” value (DJ-1 deficient ES cells; 15 h exposure, MTT) turn out when tunicamycin was run?
A: The value was “did not observe altered sensitivity”.

Q: With CN[C@@H]1C[C@H]2O[C@@](C)([C@@H]1OC)n1c3ccccc3c3c4c(c5c6ccccc6n2c5c31)C(=O)NC4 [staurosporine] as the molecule, how does the “sensitivity of DJ-1 deficient cells to toxin relative to heterozygous cells” value (DJ-1 deficient ES cells; 15 h exposure, MTT) read?
A: The value was “did not observe altered sensitivity”.

Q: “5′ UUCCAAACCGG AUGAGUGGdTdT 3′ (UUCCAAACCGGAUGAGUGGTT; siRNA; sugars from the 5' end r19 d2, backbone not given here) [parkin siRNA, parkin-specific short interfering RNA synthesized by Dharmacon]” was tested. Which “dopamine neuron sensitivity to MPP+” value ([1]; MPP+ 10 μM) did it give?
A: The value was “failed to alter dopamine neuron sensitivity”.

Q: What about the “cyclin E or DAT immunoreactivity” value ([1]; absence of kainate) of the same molecule?
A: The value was “failed to alter cyclin E or DAT immunoreactivity”.

Q: And the “sensitization of DAT-negative neurons to kainate relative to DAT-positive population” value ([1]; cyclin E induction and apoptosis)?
A: The value was “significantly lesser extent”.

Q: What about the “apoptosis of dopamine neurons” value ([1]; kainate) of the same molecule?
A: The value was “increased apoptosis”.

Q: What about the “cyclin E accumulation in dopamine neurons” value ([1]; kainate) of the same molecule?
A: Its value is “increased accumulation of cyclin E”.

Q: And the DAT immunoreactivity ([1]; presence of kainate)?
A: The DAT immunoreactivity was “decreased DAT immunoreactivity”.

Q: What about the “cleaved-PARP (apoptosis marker)” value [2] of the same molecule?
A: The value was “accumulation of cleaved poly (ADP-ribose) polymerase”.

Q: What about the “cyclin E accumulation” value [2] of the same molecule?
A: Its value is “increased accumulation of cyclin E”.

Q: And the parkin protein expression [2]?
A: Its parkin protein expression is “significantly reduced parkin expression”.

Q: Which “sensitivity of DJ-1 deficient cells to toxin relative to heterozygous cells” value (DJ-1 deficient ES cells; 15 h exposure, MTT) does the source give for C[C@@H]1C[C@@H]([C@H](O)CC2CC(=O)NC(=O)C2)C(=O)[C@@H](C)C1 [cycloheximide] here?
A: The value was “did not observe altered sensitivity”.

Q: CC(=O)N[C@@H](CSC(=O)[C@]1([C@@H](O)C(C)C)NC(=O)[C@H](C)[C@@H]1O)C(=O)O [lactacystin] was tested. Which “sensitivity of DJ-1 deficient cells to toxin relative to heterozygous cells” value (DJ-1 deficient ES cells) did it give?
A: The value was “sensitized”.

Q: For [Cl][Cu][Cl] [copper], which “sensitivity of DJ-1 deficient cells to toxin relative to heterozygous cells” value (DJ-1 deficient ES cells; 15 h exposure, MTT) is on record?
A: The value was “sensitized”.

B1: C106A: DJ-1 cysteine-to-alanine mutant at cysteine 106 (protein, UniProt Q99497 1-189, looked up, variant C106A)
chain: MASKRALVILAKGAEEMETVIPVDVMRRAGIKVTVAGLAGKDPVQCSRDVVICPDASLEDAKKEGPYDVVVLPGGNLGAQNLSESAAVKEILKEQENRKGLIAAIAAGPTALLAHEIGFGSKVTTHPLAKDKMMNGGHYTYSENRVEKDGLILTSRGPGTSFEFALAIVEALNGKEVAAQVKAPLVLKD
Q: How did the “suppression of heat-induced aggregation of CS (chaperone activity)” value (citrate synthase (CS)) turn out when B1 was run?
A: Its value is “does not alter the basal activity”.

Q: What about the “viability of DJ-1 knockout cells in the presence of H2O2” value (DJ-1-deficient ES cells) of the same molecule?
A: The value was “robustly rescued”.

B2: C106A/C53A/C46A: triple mutant that harbors mutations at all three cysteines in DJ-1 (protein, UniProt Q99497 1-189, looked up, variant C106A C53A C46A)
chain: B1 chain with C46A, C53A
Q: Which “suppression of heat-induced aggregation of CS (chaperone activity)” value (citrate synthase (CS)) does the source give for B2 here?
A: Its value is “loss of chaperone function”.

Q: What about the “viability of DJ-1 knockout cells in the presence of H2O2” value (DJ-1-deficient ES cells) of the same molecule?
A: Its value is “failed to protect”.
